pIC50: −log10 of the molar value.

We go through 24 compounds from US10519177B2, “Heterocyclic compounds and uses thereof” (Plexxikon Inc., priority 2013, dated 2019).

One test addresses BRD4-BD12 (1-477) (Homo sapiens (Human), UniProt O60885). As to the kind of experiment: Alphascreen binding assay BRD4-BD12. The note with it: BRD4(1 2) H4; read-out: Biochemical activity (IC50 μM) BRD4(1 2) H4. An outline of the steps:
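First, compound was preincubated 1 h at room temperature with the His-tagged BRD4 protein (BD1 44-164 or tandem BD12 1-477) and acetylated H4 peptide. Next, donor and acceptor beads were added at 7.5 μg/ml final. After 30 min, AlphaScreen emission was recorded.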
For orientation: Alpha assays give light when donor and acceptor beads are brought close together.

The test system of another test is MV-4-11 cells. As to the kind of experiment: Oncology cell growth assay MV-4-11 (CellTiter Glo). It counts as cell-based. Conditions: Homo sapiens, MV4-11, 72 h; MV-4-11, 3d growth; read-out: Cell activity (IC50 μM) MV-4-11 3d-Growth. In a few lines:
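MV-4-11 AML cells (MLL-AF4), 3000 per well, exposed to 8-point 1:3 compound titration from 10 μM top concentration (0.2% DMSO) for 72 h. Viability by CellTiter Glo luminescence, normalized to DMSO controls; pIC50 from four-parameter curve fit.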
(ATP-based viability assays read luminescence as a measure of living cells.)

Another test concerns bromodomain. As to the kind of experiment: at least one of the bromodomain cell assays of Example 57. It counts as cell-based. Conditions: at least one of the bromodomain cell assays described in Example 57; read-out: IC50 in at least one of the bromodomain cell assays.

On to `Cc1noc(C)c1-c1cnc2c(-c3cnc(N)cn3)cn(CC3(F)CCCCC3)c2c1` [P-0472, 5-[6-(3,5-dimethylisoxazol-4-yl)-1-[(1-fluorocyclohexyl)methyl]pyrrolo[3,2-b]pyridin-3-yl]pyrazin-2-amine], for which the IC50 on BRD4-BD12 (1-477) and in the test with MV-4-11 cells was below 1 µM in each case. Further, in the test on bromodomain, the negative logarithm of the IC50 (pIC50) – broadly, the negative decadic logarithm of the IC50, by convention in mol/L – was above 5.00.

As for `Cc1noc(C)c1-c1cnc2c(-c3cnc(N)nc3)cn(CC3(F)CCCCC3)c2c1` [P-0473, 5-[6-(3,5-dimethylisoxazol-4-yl)-1-[(1-fluorocyclohexyl)methyl]pyrrolo[3,2-b]pyridin-3-yl]pyrimidin-2-amine], the IC50 at BRD4-BD12 (1-477) and in the test with MV-4-11 cells was below 1 µM throughout. Also, in the test on bromodomain, the pIC50 was above 5.00.

Consider `Cc1noc(C)c1-c1cnc2c(-c3cnc(C4CC4)nc3)cn(CC3(F)CCCCC3)c2c1` [P-0474, 4-[3-(2-cyclopropylpyrimidin-5-yl)-1-[(1-fluorocyclohexyl)methyl]pyrrolo[3,2-b]pyridin-6-yl]-3,5-dimethyl-isoxazole], for which the IC50 on BRD4-BD12 (1-477) and with MV-4-11 cells was below 1 µM in each case. In the test on bromodomain, the pIC50 was above 5.00.

For the compound `Cc1noc(C)c1-c1cnc2c(-c3cccc(S(N)(=O)=O)c3)cn(CC3(F)CCCCC3)c2c1` [P-0475, 3-[6-(3,5-dimethylisoxazol-4-yl)-1-[(1-fluorocyclohexyl)methyl]pyrrolo[3,2-b]pyridin-3-yl]benzenesulfonamide], the concentration for half-maximal inhibition (IC50) on BRD4-BD12 (1-477) and in the test on MV-4-11 cells was below 1 µM each time. Besides, in the test on bromodomain, the pIC50 is above 5.00.

With `Cc1noc(C)c1-c1cnc2c(-c3ccc(C(=O)O)c(F)c3F)cn(CC3(F)CCCCC3)c2c1` [P-0476, 4-[6-(3,5-dimethylisoxazol-4-yl)-1-[(1-fluorocyclohexyl)methyl]pyrrolo[3,2-b]pyridin-3-yl]-2,3-difluoro-benzoic acid], the IC50 at BRD4-BD12 (1-477) and in the test with MV-4-11 cells was below 1 µM throughout. For the same compound, in the test with bromodomain, the pIC50 was above 5.00.

As to `Cc1noc(C)c1-c1cnc2c(-c3csc(C(=O)O)c3)cn(CC3(F)CCCCC3)c2c1` [P-0477, 4-[6-(3,5-dimethylisoxazol-4-yl)-1-[(1-fluorocyclohexyl)methyl]pyrrolo[3,2-b]pyridin-3-yl]thiophene-2-carboxylic acid], the IC50 (usually the concentration that gives 50% inhibition) was below 1 µM on BRD4-BD12 (1-477) and 1 to 10 µM with MV-4-11 cells. The pIC50 in the test on bromodomain is above 5.00.

Take `Cc1noc(C)c1-c1cnc2c(-c3ccc(C(=O)O)s3)cn(CC3(F)CCCCC3)c2c1` [P-0478, 5-[6-(3,5-dimethylisoxazol-4-yl)-1-[(1-fluorocyclohexyl)methyl]pyrrolo[3,2-b]pyridin-3-yl]thiophene-2-carboxylic acid]: the IC50 on BRD4-BD12 (1-477) and with MV-4-11 cells was below 1 µM each time. Moreover, in the test on bromodomain, the pIC50 is above 5.00.

Turning to `Cc1nnn(C)c1-c1cnc2c(-c3ccc(S(N)(=O)=O)cc3)cn(CC3(F)CCCCC3)c2c1` [P-0479, 4-[6-(3,5-dimethyltriazol-4-yl)-1-[(1-fluorocyclohexyl)methyl]pyrrolo[3,2-b]pyridin-3-yl]benzenesulfonamide], the IC50 at BRD4-BD12 (1-477) and in the test with MV-4-11 cells was below 1 µM throughout. Moreover, the pIC50 with bromodomain is above 5.00.

Consider `Cn1cc(-c2cnc3c(-c4ccc(C(=O)O)cc4)cn(CC4CCC(F)(F)CC4)c3c2)ccc1=O` [P-0480, 4-[1-[(4,4-difluorocyclohexyl)methyl]-6-(1-methyl-6-oxo-3-pyridyl)pyrrolo[3,2-b]pyridin-3-yl]benzoic acid], for which the results for the IC50 on BRD4-BD12 (1-477) and in the test on MV-4-11 cells were below 1 µM and 1 to 10 µM, respectively. For the same compound, the negative-log IC50 (pIC50) in the test on bromodomain is above 5.00.

Take `Cc1cc(-c2cnc3c(-c4cnn(CC(F)(F)F)c4)cn(CC4CCC(F)(F)CC4)c3c2)c[nH]c1=O` [P-0481, 5-[1-[(4,4-difluorocyclohexyl)methyl]-3-[1-(2,2,2-trifluoroethyl)pyrazol-4-yl]pyrrolo[3,2-b]pyridin-6-yl]-3-methyl-1H-pyridin-2-one]: the IC50 at BRD4-BD12 (1-477) and in the test with MV-4-11 cells was below 1 µM in each case. Moreover, the pIC50 in the test on bromodomain was above 5.00.

In the case of `Cc1noc(C)c1-c1cnc2c(-c3cnn(CC(=O)O)c3)cn(CC3CCC(F)(F)CC3)c2c1` [P-0482, 3-[4-[1-[(4,4-difluorocyclohexyl)methyl]-6-(3,5-dimethylisoxazol-4-yl)pyrrolo[3,2-b]pyridin-3-yl]pyrazol-1-yl]acetic acid], the half-maximal inhibitory concentration (IC50) at BRD4-BD12 (1-477) is below 1 µM; with MV-4-11 cells it was 10 to 200 µM. Moreover, the pIC50 in the test with bromodomain was above 5.00.

On to `Cc1cc(-c2cn(CC3CCC(F)(F)CC3)c3cc(-c4c(C)noc4C)cnc23)ccc1C(=O)O` [P-0483, 4-[1-[(4,4-difluorocyclohexyl)methyl]-6-(3,5-dimethylisoxazol-4-yl)pyrrolo[3,2-b]pyridin-3-yl]-2-methyl-benzoic acid], for which the IC50 at BRD4-BD12 (1-477) and with MV-4-11 cells was below 1 µM in each case. Also, the pIC50 with bromodomain was above 5.00.

`Cc1noc(C)c1-c1cnc2c(-c3csc(C(=O)O)c3)cn(CC3CCC(F)(F)CC3)c2c1` [P-0484, 4-[1-[(4,4-difluorocyclohexyl)methyl]-6-(3,5-dimethylisoxazol-4-yl)pyrrolo[3,2-b]pyridin-3-yl]thiophene-2-carboxylic acid]: the IC50 on BRD4-BD12 (1-477) and in the test on MV-4-11 cells was below 1 µM throughout. Further, the pIC50 in the test with bromodomain was above 5.00.

As for `Cc1noc(C)c1-c1cnc2c(-c3ccc(C(=O)O)s3)cn(CC3CCC(F)(F)CC3)c2c1` [P-0485, 5-[1-[(4,4-difluorocyclohexyl)methyl]-6-(3,5-dimethylisoxazol-4-yl)pyrrolo[3,2-b]pyridin-3-yl]thiophene-2-carboxylic acid], the half-inhibitory concentration (IC50) on BRD4-BD12 (1-477) and with MV-4-11 cells was below 1 µM each time. The pIC50 with bromodomain was above 5.00.

With `Cc1noc(C)c1-c1cnc2c(-c3cc(C(=O)O)cs3)cn(CC3CCC(F)(F)CC3)c2c1` [P-0486, 5-[1-[(4,4-difluorocyclohexyl)methyl]-6-(3,5-dimethylisoxazol-4-yl)pyrrolo[3,2-b]pyridin-3-yl]thiophene-3-carboxylic acid], the IC50 at BRD4-BD12 (1-477) and with MV-4-11 cells was below 1 µM in each case. Also, the pIC50 in the test on bromodomain was above 5.00.

In the case of `Cc1noc(C)c1-c1cnc2c(-c3ccc(C(=O)O)c(O)c3)cn(CC3CCC(F)(F)CC3)c2c1` [P-0487, 4-[1-[(4,4-difluorocyclohexyl)methyl]-6-(3,5-dimethylisoxazol-4-yl)pyrrolo[3,2-b]pyridin-3-yl]-2-hydroxy-benzoic acid], the IC50 at BRD4-BD12 (1-477) and with MV-4-11 cells was below 1 µM in each case. For the same compound, the pIC50 in the test on bromodomain was above 5.00.

Take `Cc1noc(C)c1-c1cnc2c(-c3cccc(O)c3)cn(CC3(F)CCCCC3)c2c1` [P-0488, 3-[6-(3,5-dimethylisoxazol-4-yl)-1-[(1-fluorocyclohexyl)methyl]pyrrolo[3,2-b]pyridin-3-yl]phenol]: the IC50 at BRD4-BD12 (1-477) and in the test on MV-4-11 cells was below 1 µM throughout. In addition, the pIC50 in the test with bromodomain was above 5.00.

With `CNS(=O)(=O)c1cccc(-c2cn(CC3(F)CCCCC3)c3cc(-c4c(C)noc4C)cnc23)c1` [P-0489, 3-[6-(3,5-dimethylisoxazol-4-yl)-1-[(1-fluorocyclohexyl)methyl]pyrrolo[3,2-b]pyridin-3-yl]-N-methyl-benzenesulfonamide], the IC50 at BRD4-BD12 (1-477) and in the test on MV-4-11 cells was below 1 µM in each case. Also, the pIC50 with bromodomain was above 5.00.

As to `Cc1noc(C)c1-c1cnc2c(-c3cccc(S(=O)(=O)NC4CC4)c3)cn(CC3(F)CCCCC3)c2c1` [P-0490, N-cyclopropyl-3-[6-(3,5-dimethylisoxazol-4-yl)-1-[(1-fluorocyclohexyl)methyl]pyrrolo[3,2-b]pyridin-3-yl]benzenesulfonamide], the IC50 at BRD4-BD12 (1-477) and in the test with MV-4-11 cells was below 1 µM in each case. In the test with bromodomain, the pIC50 is above 5.00.

Regarding `Cc1noc(C)c1-c1cnc2c(-c3cccc(S(=O)(=O)NCCO)c3)cn(CC3(F)CCCCC3)c2c1` [P-0491, 3-[6-(3,5-dimethylisoxazol-4-yl)-1-[(1-fluorocyclohexyl)methyl]pyrrolo[3,2-b]pyridin-3-yl]-N-(2-hydroxyethyl)benzenesulfonamide], the concentration for half-maximal inhibition (IC50) on BRD4-BD12 (1-477) and in the test on MV-4-11 cells was below 1 µM each time. The pIC50 with bromodomain was above 5.00.

Take `Cc1noc(C)c1-c1cnc2c(-c3cccc(NS(C)(=O)=O)c3)cn(CC3(F)CCCCC3)c2c1` [P-0492, N-[3-0[6-(3,5-dimethylisoxazol-4-yl)-1-[(1-fluorocyclohexyl)methyl]pyrrolo[3,2-b]pyridin-3-yl]phenyl]methanesulfonamide]: the IC50 at BRD4-BD12 (1-477) and in the test with MV-4-11 cells was below 1 µM throughout. Further, the pIC50 with bromodomain is above 5.00.

On to `COC(=O)Nc1ccc(-c2cn(CC3(F)CCCCC3)c3cc(-c4c(C)noc4C)cnc23)cc1` [P-0493, methyl N-[4-[6-(3,5-dimethylisoxazol-4-yl)-1-[(1-fluorocyclohexyl)methyl]pyrrolo[3,2-b]pyridin-3-yl]phenyl]carbamate], for which the IC50 at BRD4-BD12 (1-477) and with MV-4-11 cells was below 1 µM throughout. The pIC50 with bromodomain was above 5.00.

For the compound `Cc1noc(C)c1-c1cnc2c(-c3ccc(S(=O)(=O)NC4CC4)cc3)cn(CC3(F)CCCCC3)c2c1` [P-0494, N-cyclopropyl-4-[6-(3,5-dimethylisoxazol-4-yl)-1-[(1-fluorocyclohexyl)methyl]pyrrolo[3,2-b]pyridin-3-yl]benzenesulfonamide], the IC50 on BRD4-BD12 (1-477) and in the test with MV-4-11 cells was below 1 µM each time. Further, the pIC50 with bromodomain is above 5.00.

Regarding `Cc1noc(C)c1-c1cnc2c(-c3ccc(NS(C)(=O)=O)cc3)cn(CC3(F)CCCCC3)c2c1` [P-0495, N-[4-[6-(3,5-dimethylisoxazol-4-yl)-1-[(1-fluorocyclohexyl)methyl]pyrrolo[3,2-b]pyridin-3-yl]phenyl]methanesulfonamide], the IC50 on BRD4-BD12 (1-477) and in the test on MV-4-11 cells was below 1 µM in each case. In addition, the negative logarithm of the IC50 (pIC50) in the test with bromodomain is above 5.00.
